In patent publication US20240270725A1, “MAGL INHIBITORS” (Hoffmann-La Roche Inc., priority 2021, published 2024):
One block for each compound: values may come before it.

What was measured:
MAGL [1] = biological target: T1, MAGL (Homo sapiens, UniProt Q99685); assay: 2-AG assay, MAGL inhibitory activity (human); format: biochemical
T1 sequence (Q99685 1-303): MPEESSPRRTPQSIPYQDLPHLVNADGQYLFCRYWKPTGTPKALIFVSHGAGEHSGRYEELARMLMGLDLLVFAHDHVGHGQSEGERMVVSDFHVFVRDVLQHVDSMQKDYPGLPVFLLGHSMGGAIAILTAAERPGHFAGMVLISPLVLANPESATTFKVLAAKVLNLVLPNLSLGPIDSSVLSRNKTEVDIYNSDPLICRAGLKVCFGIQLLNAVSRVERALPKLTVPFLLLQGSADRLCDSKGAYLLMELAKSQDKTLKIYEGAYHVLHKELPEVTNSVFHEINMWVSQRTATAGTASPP
Description: (§1) Compounds were profiled for MAGL inhibitory activity by determining the enzymatic activity by following the hydrolysis of the natural substrate, 2-arachidonoylglycerol, resulting in arachidonic acid, which can be followed by mass spectrometry. This assay is hereinafter abbreviated “2-AG assay”.
(§2) A C18 SPE cartridge (G9205A) was used in an acetonitrile/water liquid setup. […] The activity of the compounds was calculated based on the ratio of intensities [arachidonic acid/d8-arachidonic acid].

MAGL [2] = biological target: T2, MAGL (Mus musculus, UniProt O35678); assay: 2-AG assay, MAGL inhibitory activity (mouse); format: biochemical
T2 sequence (O35678 1-303): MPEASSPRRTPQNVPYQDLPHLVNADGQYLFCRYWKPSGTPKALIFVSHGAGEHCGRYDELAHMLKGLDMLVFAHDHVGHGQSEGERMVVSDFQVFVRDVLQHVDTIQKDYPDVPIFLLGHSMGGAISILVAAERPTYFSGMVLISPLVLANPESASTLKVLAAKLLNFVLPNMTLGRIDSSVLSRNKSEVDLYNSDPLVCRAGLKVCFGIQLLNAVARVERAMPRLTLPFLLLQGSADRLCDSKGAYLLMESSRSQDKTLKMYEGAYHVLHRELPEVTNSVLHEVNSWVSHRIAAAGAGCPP
Description: as §1, §2

MAGL [3] = biological target: T2, MAGL; assay: Drug occupancy study by PET with [^18F]-II; format: in vivo
Description: To investigate the utility of [^18F]-II, a drug occupancy study was conducted after validating the in vitro/vivo specificity. The potent and selective covalent MAGL inhibitor PF-06795071, originally developed for anti-inflammatory treatments, was applied for this study (McAllister LA, Butler C R, Mente S, et al. Discovery of Trifluoromethyl Glycol Carbamates as Potent and Selective Covalent Monoacylglycerol Lipase (MAGL) Inhibitors for Treatment of Neuroinflammation. J Med Chem. 2018;61:3008-3026). PF-06795071 was prepared as a transparent solution in a vehicle of DMSO/Cremophor/saline (v/v/v=5/5/90). The animal was treated with escalating doses of PF-06795071 (0.002, 0.01, 0.05, 0.2 and 2 mg/kg) 1 hour prior to the administration of [^18F]-II (4.15-11.13 MBq, 6.84-13.19 nmol/kg). The in vivo PET scans and data reconstruction were carried out as described in Example 9. The SUVs from the whole brain TACs was averaged from 0-90 min to obtain SUV0-90 min in receptor occupancy study as previously detailed by Krämer et al. (Krämer SD, Betzel T, Mu L, et al. Evaluation of ^11C-Me-NB1 as a Potential PET Radioligand for Measuring GluN2B-Containing NMDA Receptors, Drug Occupancy, and Receptor Cross Talk. J Nucl Med. 2018;59:698-703). The non-linear curve was fitted with GraphPad Prism Software (version 8.3.4, GraphPad Software Inc) for D50 value.

MAGL [4] = biological target: T3, MAGL (Rattus norvegicus, UniProt Q8R431); assay: In vitro autoradiography blockade on rat brain section; format: binding; conditions: 10 μM blocker
T3 construct: from tissue; host or cells: Wistar rat brain sections
T3 sequence (Q8R431 1-303): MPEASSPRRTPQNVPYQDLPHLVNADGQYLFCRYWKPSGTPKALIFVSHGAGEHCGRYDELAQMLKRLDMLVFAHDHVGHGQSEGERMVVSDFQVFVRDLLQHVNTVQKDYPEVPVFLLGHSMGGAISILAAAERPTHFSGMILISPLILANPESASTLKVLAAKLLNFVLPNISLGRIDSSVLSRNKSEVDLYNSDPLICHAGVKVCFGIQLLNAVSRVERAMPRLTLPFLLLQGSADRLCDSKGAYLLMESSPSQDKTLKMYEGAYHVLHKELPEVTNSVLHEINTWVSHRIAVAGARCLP

MAGL [5] = assay: In vivo PET scans in MAGL KO and WT mice; conditions: mouse brain, at 1 min p.i., intravenous
Description: The animal was anesthetized using isoflurane and placed in the PET/CT scanner (Super Argus, Sedecal, Madrid, Spain). The radiotracer was injected intravenously, and data was acquired at 1 min post-injection. The dynamic PET scan lasted 60 min for [^11C]-I, while it's prolonged to 90 min for [^18F]-II and [^18F]-III. […] The regions of interest (ROI) were defined on an MRI T2 (W.Schiffer) template provided by PMOD v4.002 (PMOD Technologies, Zurich, Switzerland) to generate the corresponding time acitivity curves (TACs). The radioactivity accumulations in the whole brain and different regions were expressed as standardized uptake values (SUVs), which is the decay-corrected regional radioactivity normalized to the injected radioactivity and body weight.

MAGL [6] = tested on: MAGL
Description: Frozen brain tissues of Wistar rats or mouse were cut in the thickness of 10 μm on a cryostat (Cryo-Star HM 560 MV; Microm, Thermo Scientific, Wilmington, DE), and stored at −20° C. before use. Before the experiments, the slices were thawed on ice for 10 min and subsequently immersed into aqueous 50 mM Tris buffer (pH 7.4, 30 mM HEPES, 1.2 mM MgCl2, 110 mM NaCl, 5 mM KCl, 2.5 mM CaCl2) containing 3% fatty acid free bovine serum albumin (BSA) at 0° C. for 10 min for precondition. Upon drying, incubation was carried out in a humidified chamber with the radiotracer at room temperature for 30 min. […] The slices were decanted after incubation, and washing procedure was conducted. The slices were left to dry before attaching to phosphor imager plates (Fuji, Dielsdorf, Switzerland), and exposure was lasted for 60 min. The films were later scanned by BAS5000 reader (Fuji), and data analysis was performed using AIDA 4.50.010 software (Raytest Isotopenmessgerate GmbH, Straubenhardt, Germany).

MAGL [7] = conditions: reported in Hattori et al., J Med Chem 2019; cited from earlier work

IC50 (MAGL [1]): 6.5 nM
IC50 (MAGL [2]): 4.3 nM
Compound: COc1cccc(-c2ccc(N3C[C@H](N4CCN(C(=O)c5ccco5)CC4)CC3=O)cc2)c1 [I, (R)-4-(4-(Furan-2-carbonyl)piperazin-1-yl)-1-(3′-methoxy-[1,1′-biphenyl]-4-yl)pyrrolidin-2-one]

IC50 (MAGL [1]): 11.5 nM
IC50 (MAGL [2]): 11.3 nM
Compound: O=C(c1ccco1)N1CCN([C@@H]2CC(=O)N(c3ccc(-c4cccc(F)c4)cc3)C2)CC1 [III, (R)-1-(3′-Fluoro-[1,1′-biphenyl]-4-yl)-4-(4-(furan-2-carbonyl)piperazin-1-yl)pyrrolidin-2-one]

effect on [^18F]-II accumulation in the mouse brain (MAGL [3]; 0.002 to 2 mg/kg): dose-dependent reduction
required dose to occupy 50% MAGL in the mouse brain (D50) (MAGL [3]; given 1 hour prior to [^18F]-II, SUV0-90 min whole brain): 0.034 mg/kg
Compound: O=C(O[C@H](CO)C(F)(F)F)N1C[C@@H]2C(c3ccn(-c4ccc(F)cc4)n3)[C@@H]2C1 (stereo partly shown) [PF-06795071]

Compound: O=C(OC(C(F)(F)F)C(F)(F)F)N1CCC(CNS(=O)(=O)c2ccc(Cl)cc2)CC1 [SAR127303]
blockade of specific binding of [^11C]-I (MAGL [4]): substantial reduction and homogenous distribution of the radioactivity

Compound: [11CH3]Oc1cccc(-c2ccc(N3C[C@H](N4CCN(C(=O)c5ccco5)CC4)CC3=O)cc2)c1 [[^11C]-I, (R)-4-(4-(furan-2-carbonyl)piperazin-1-yl)-1-(3′-(methoxy-^11C)-[1,1′-biphenyl]-4-yl)pyrrolidin-2-one]
SUVmax (brain uptake) (MAGL [5]): ~1.32
specificity and selectivity in vitro (MAGL [6]; autoradiography, blockade and MAGL KO brain section): high specificity and selectivity
distribution of radioactive signal accumulation on brain slices (MAGL [6]; ~1 nM radiotracer, mouse or rat brain slice): heterogeneous distribution of radioactive signal accumulation, which matched to the MAGL expression pattern in rodents

SUVmax (brain uptake) (MAGL [5]): ~1.63
Compound: O=C(c1ccco1)N1CCN([C@@H]2CC(=O)N(c3ccc(-c4cccc([18F])c4)cc3)C2)CC1 [[^18F]-III]

SUVmax (brain uptake) (MAGL [5]): ~1.56
Compound: O=C(c1ccco1)N1CCN([C@@H]2CC(=O)N(c3ccc(-c4ccc([18F])cc4)cc3)C2)CC1 [[^18F]-II]

Compound: Cc1ccnc([18F])c1-c1cccc(N2C[C@H](N3CCN(C(=O)c4nccs4)CC3)CC2=O)c1 [[^18F]T-401, (4R)-1-{3-[2-(^18F)Fluoro-4-methylpyridin-3-yl]phenyl}-4-[4-(1,3-thiazol-2-ylcarbonyl)piperazin-1-yl]pyrrolidin-2-one]
SUVmax (brain uptake), literature (MAGL [7]): ~0.7
